Data taken from publication PMC9891369, “Deconvoluting binding sites in amyloid nanofibrils using time-resolved spectroscopy” (Chemical Science, 2023).

Key:
[1] = target: T1, amyloid-β fibrils (Aβ1–40) (Homo sapiens, UniProt P05067); assay: time-resolved photoluminescence titration, two-site non-cooperative fit; assay type: binding; settings: read-out: Values ^a
T1 construct: gene APP; synthetic Aβ1–40, fibrillar

[2] = target: T1, amyloid-β fibrils (Aβ1–40); assay: time-resolved photoluminescence titration, two-site fit; assay type: binding

T1 sequence (P05067 672-711): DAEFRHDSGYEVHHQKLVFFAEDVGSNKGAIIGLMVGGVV

Work on `[Ru+2].c1ccc(-c2ccccn2)nc1.c1ccc(-c2ccccn2)nc1.c1cnc2c(c1)c1nc3nccnc3nc1c1cccnc12` [[Ru(bpy)2(dpqp)]^2+] yielded a Kd [1] of 2200 ± 500 nM.

`[Ru+2].c1ccc(-c2ccccn2)nc1.c1ccc(-c2ccccn2)nc1.c1ccc(-c2ccccn2)nc1` [[Ru(bpy)3]^2+] gave a Kd [2] of 4.6 µM.
